# Test results taken from patent publication US7960393B2, “Pyrimidine derivatives useful for the treatment of diseases mediated by CRTH2” (Actimis Pharmaceuticals, Inc., priority 2002, dated 2011).
# What was measured:
# human CRTH2 [1] = biological target: T1, human CRTH2 (Homo sapiens, UniProt Q9Y5Y4); assay: Measurement of Ca2+ mobilization in the human CRTH2-transfected L1.2 cell line (Assay 1); format: cell-based; conditions: PGD2-induced Ca2+ mobilization in CRTH2-transfected L1.2 cells; compounds as yielded by solid phase synthesis, purity about 40 to 90%; read-out: Activity class
# T1 construct: expressed in transfected cells; host or cells: L1.2 cells, pEAK expression vector, puromycin-selected
# T1 sequence (Q9Y5Y4 1-395): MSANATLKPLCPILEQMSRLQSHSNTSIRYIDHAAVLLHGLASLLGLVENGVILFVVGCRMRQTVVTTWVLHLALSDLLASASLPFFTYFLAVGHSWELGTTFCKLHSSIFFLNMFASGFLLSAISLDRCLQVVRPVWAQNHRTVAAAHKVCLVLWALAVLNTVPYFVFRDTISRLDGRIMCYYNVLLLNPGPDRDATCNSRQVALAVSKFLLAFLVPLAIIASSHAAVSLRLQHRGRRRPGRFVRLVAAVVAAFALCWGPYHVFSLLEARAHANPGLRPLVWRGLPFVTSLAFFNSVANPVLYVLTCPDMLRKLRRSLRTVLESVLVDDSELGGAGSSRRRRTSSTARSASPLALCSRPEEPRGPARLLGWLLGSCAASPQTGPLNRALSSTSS
# In short: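 Human CRTH2 was stably expressed in L1.2 cells (puromycin-selected) loaded with Fluo-3AM (1 μM final) for 60 min at room temperature. Buffer was 20 mM HEPES pH 7.6, 0.1% BSA, 1 mM probenecid in Hanks'. Cells (2×10^5/well) got compound for 5 min at RT, with fluorescence at 480 nm. IC50 bins: A ≤10 nM, B ≤100 nM, C ≤500 nM, D above; samples were solid-phase products of about 40–90% purity.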
# human CRTH2 [2] = biological target: T1, human CRTH2; assay: Human CRTH2 receptor binding assay (Assay 2); conditions: binding to puromycin-resistant human CRTH2 L1.2 transfectants
# Procedure: Human CRTH2 cDNA was amplified from human eosinophil cDNA with gene specific primers containing restriction sites for cloning into pEAK vector (Edge Bio Systems). The human CRTH2 cDNA was cloned into the mammalian expression vector pEAK. This expression plasmid (40 μg) was transfected into L1.2 cells, at a cell density of 1×10^7 cells/500 μl, by using electroporation apparatus (Gene Pulser II, BioRad) at 250V/1,000 μF. One day after the transfection, puromycin (1 μg/ml, Sigma) was added into the cell culture plates. Two weeks after the transfection, grown cells were picked up for further growth.
# [Human CRTH2 Receptor Binding Assay] (Assay 2)
# CRTH2 transfectants were washed once with PBS and resuspended in binding buffer (50 mM Tris-HCl, pH7.4, 40 mM MgCl2, 0.1% BSA, 0.1% NaN3). 100 μl of cell suspension (2×10^5 cells), [^3H]-labeled PGD2, and various concentrations of test compound were then mixed in a 96-well U-bottom polypropylene plate and incubated for […] at room temperature to allow binding to occur. […] Scintillant was added to the filtration plate, and radioactivity remaining on the filter was measured by TopCount (Packard), a scintillation counter. Non-specific binding was determined by incubating the cell suspension and [^3H]-labeled PGD2 in the presence of 1 μM of unlabeled PGD2.
Compound,IC50 (human CRTH2 [1]) [µM],melting point,Kd (human CRTH2 [2]) [µM]
CC(c1ccc(NC(=O)c2ccc(Cl)cc2)cc1)c1ncc(CC(=O)O)c(N(C)C)n1 (stereo not drawn) [Example 2-25],< 0.01,131 to 134 °C,–
CN(C)c1nc(Cc2ccc(NC(=O)c3ccccc3Oc3ccccc3)cc2)nc(N2CCCC2)c1CC(=O)O [Example 7-22],> 0.5,192 to 194 °C,–
CC(C)c1nc(Cc2ccc(NC(=O)c3ccc4ccccc4c3)cc2)nc(N(C)C)c1CC(=O)O [Example 8-10],0.01 to 0.1,158 to 160 °C,–
CC(C)Oc1ccc(C(=O)Nc2ccc(Cc3nc(Cl)c(CC(=O)O)c(N4CCCC4)n3)cc2)cc1 [Example 1-56],< 0.01,156 °C,–
O=C(O)Cc1cnc(Cc2ccc(NC(=O)c3ccc4ccccc4n3)cc2)nc1N1CCCC1 [Example 2-27],< 0.01,221 to 224 °C (dec.),–
O=C(O)Cc1cnc(Cc2ccc(NC(=O)c3ccc(F)cc3)cc2)nc1N1CCCC1 [Example 2-29],< 0.01,143 to 145 °C,–
COc1ccc(C(=O)Nc2ccc(Cc3ncc(CC(=O)O)c(N(C)C)n3)cc2)cc1 [Example 2-7],< 0.01,111 °C,–
COc1c(C)cc(C(=O)Nc2ccc(Cc3nc(Cl)c(CC(=O)O)c(N4CCCC4)n3)cc2)cc1C [Example 1-59],< 0.01,115 °C,–
CN(C)c1nc(Cc2ccc(NC(=O)C3CCC(C(C)(C)C)CC3)cc2)nc(Cl)c1CC(=O)O (stereo not drawn) [Example 1-51],< 0.01,104 °C,–
CN(C)c1nc(Cc2ccc(NC(=O)c3ccc(F)c(F)c3)cc2)nc(Cl)c1CC(=O)O [Example 1-45],< 0.01,> 94 °C,–
CN(C)c1nc(Cc2ccc(NC(=O)/C=C/c3ccc(Cl)cc3)cc2)nc(Cl)c1CC(=O)O [Example 1-41],< 0.01,117 °C,–
CN(CC(=O)NC1CCCC1)c1nc(Cc2ccc(NC(=O)c3cccnc3)cc2)nc(Cl)c1CC(=O)O [Example 1-4],> 0.5,> 174 °C,–
CCCCC[C@H](O)/C=C/[C@H]1C(=O)C[C@H](O)[C@@H]1C/C=C\CCCC(=O)O [[^3H]-labeled PGD2],–,–,0.0063
CN(CC(=O)NC1CCCC1)c1nc(Cc2ccc(NC(=O)Cc3ccc4c(c3)OCO4)cc2)nc(Cl)c1CC(=O)O [Example 1-29],0.1 to 0.5,> 120 °C,–
CCc1nc(Cc2ccc(NC(=O)c3ccc(C(F)(F)F)cc3)cc2)nc(N(C)C)c1CC(=O)O [Example 8-9],< 0.01,153 to 155 °C,–
CN(CC(=O)NC1CCCC1)c1nc(Cc2ccc(NC(=O)c3ccc4ccccc4n3)cc2)nc(Cl)c1CC(=O)O [Example 1-16],< 0.01,137 °C,–
O=C(O)Cc1c(Cl)nc(Cc2ccc(NC(=O)c3ccc(Oc4ccccc4)cc3)cc2)nc1N1CCCC1 [Example 1-55],< 0.01,160 °C,–
CN(CC(=O)NC1CCCC1)c1nc(Cc2ccc(NC(=O)Cc3ccc(Oc4ccccc4)cc3)cc2)nc(Cl)c1CC(=O)O [Example 1-31],0.01 to 0.1,> 123 °C,–
CN(C)c1nc(Cc2ccc(NC(=O)c3ccc(-c4ccccc4)cc3)cc2)nc(N2CCCC2)c1CC(=O)O [Example 7-16],0.01 to 0.1,224 to 226 °C,–
CN(CC(=O)NC1CCCC1)c1nc(Cc2ccc(NCc3ccccc3)cc2)nc(Cl)c1CC(=O)O [Example 5-2],> 0.5,> 70 °C,–
CN(C)c1nc(Cc2ccc(NC(=O)c3ccc(C(F)(F)F)cc3)cc2)nc(Cl)c1CC(=O)O [Example 1-39],< 0.01,> 150 °C,–
Cc1ccc(CC(=O)Nc2ccc(Cc3nc(Cl)c(CC(=O)O)c(N(C)CC(=O)NC4CCCC4)n3)cc2)cc1 [Example 1-15],0.01 to 0.1,> 116 °C,–
CN(CC(=O)NC1CCCC1)c1nc(Cc2ccc(NC(=O)c3ccc4ccccc4c3)cc2)nc(Cl)c1CC(=O)O [Example 1-62],< 0.01,> 176 °C,–
